Source: US12497417B2, “Delivery systems for controlled drug release” (LADRX CORPORATION, priority 2015, dated 2025)

Assays:
[1] = tested on: NSLC xenograft model LXFE 397; assay: Gemcitabine and compound 15 in human xenograft non small cell lung cancer model LXFE 397; type: in vivo, NMRI nude mice
Procedure: Female NMRI nude mice received unilateral tumor implants subcutaneously in the left flank while under isoflurane anesthesia with human LXFE 397 (squamous cell carcinoma, differentiation: poor) until tumors were palpable and had reached a volume of 50-150 mm^3. Animals were kept in cages, the temperature inside the cages maintained at 25±1° C. with a relative humidity of 45-65% and an air change rate in the cage of 60-fold per hour. The animals were fed with autoclaved Teklad Global 19% Protein Extruded Diet (T.2019S.12) from Harlan Laboratories and had access to sterile filtered and acidified (pH 2.5) tap water which was changed twice weekly. Feed and water are provided ad libitum. […] Animals are routinely monitored twice daily on working days and daily on Saturdays and Sundays. Starting on day 0, animals are weighed twice a week. Relative body weights (RBW) of individual animals are calculated by dividing the individual absolute body weight on day X (BWx) by the individual body weight on the day of randomization. The tumor volume is determined by a two-dimensional measurement with calipers on the day of randomization (Day 0) and then twice weekly. Tumor volumes are calculated according to the following equation: Tumor Vol [mm^3]=a [mm]×b^2 [mm^2]×0.5, where “a” is the largest diameter and “b” is the perpendicular diameter of the tumor representing an idealized ellipsoid. The relative volume of an individual tumor on day X (RTVx) is calculated by dividing the absolute volume [mm^3] of the respective tumor on day X (Tx) by the absolute volume of the same tumor on the day of randomization. Schedules are applied to the extent that animal welfare policies allow. Termination of individual mice at tumor volume >2000 mm^3. Stock solutions of compound 15 were prepared as follows for the two treatment groups: • 1) 8 mice, 40 g average weight: 24 mg/kg Gemcitabine equivalents≡78.48 mg/kg≡3.14 mg/mouse. Sample preparation: 154 mg weighed in a 20 mL vial dissolved in 14.7 mL 20 mM sodium phosphate buffer pH 7; 4 aliquots with 3.6 mL each in 10 mL vials. Frozen in liquid nitrogen, lyophilized (>48 h) and stoppered. • 2) 8 mice, 40 g average weight: 36 mg/kg Gemcitabine equivalents≡117.7 mg/kg≡4.71 mg/mouse. Sample preparation: 231 mg weighed in a 20 mL vial dissolved in 14.7 mL 20 mM sodium phosphate buffer pH 7; 4 aliquots with 3.6 mL each in 10 mL vials. Frozen in liquid nitrogen, lyophilized (>48 h) and stoppered.
On the day of treatment the lyophilized samples were dissolved in 20 mM sodium phosphate buffer pH 7, containing 5% Glucose and injected intravenously. […]

[2] = tested on: human non-small cell carcinoma xenograft model LXFE 937; assay: Gemcitabine and compound 15 in human non-small cell carcinoma xenograft model LXFE 937; type: in vivo, NMRI nude mice; settings: for Body weight change (BWC) versus control: compound 15 18 mg/kg gemcitabine equivalents i.v. days 0, 3, 7, 10, 14, 17, 21, 24
Procedure: Female NMRI nude mice received unilateral tumor implants subcutaneously in the left flank while under isoflurane anesthesia with human LXFE 937 tumor pieces until tumors were palpable and had reached a volume of ˜100 mm^3. Animals were kept in cages, the temperature inside the cages maintained at 25±1° C. with a relative humidity of 45-65% and an air change rate in the cage of 60-fold per hour. The animals were fed with autoclaved Teklad Global 19% Protein Extruded Diet (T.2019S.12) from Harlan Laboratories and had access to sterile filtered and acidified (pH 2.5) tap water which was changed twice weekly. Feed and water were provided ad libitum. […] Animals were routinely monitored twice daily on working days and daily on Saturdays and Sundays. Starting on day 0, animals were weighed twice a week. Relative body weights (RBW) of individual animals are calculated by dividing the individual absolute body weight on day X (BWx) by the individual body weight on the day of randomization. The tumor volume is determined by a two-dimensional measurement with calipers on the day of randomization (Day 0) and then twice weekly. Tumor volumes are calculated according to the following equation: • Tumor Vol [mm^3]=a [mm]×b^2 [mm^2]×0.5, where “a” is the largest diameter and “b” is the perpendicular diameter of the tumor representing an idealized ellipsoid. The relative volume of an individual tumor on day X (RTVx) is calculated by dividing the absolute volume [mm^3] of the respective tumor on day X (Tx) by the absolute volume of the same tumor on the day of randomization. Schedules are applied to the extent that animal welfare policies allow. Termination of individual mice at tumor volume >2000 mm^3. Stock solutions of compound 15 were prepared as follows for the two treatment groups: • 1) 8 mice, 40 g average weight: 2×18 mg/kg gemcitabine equivalents (bi-weekly dosing; d 0, 3, 7, 10 etc. for 4 weeks)≡58.4 mg/kg≡2.35 mg/mouse. Sample preparation: 115.5 mg weighed in a 10 mL vial dissolved in 7.35 mL 20 mM sodium phosphate buffer pH 7; 4 aliquots with 1.86 mL each in 10 mL vials. Frozen in liquid nitrogen, lyophilized (>48 h) and stoppered. On the day of treatment the lyophilized samples were dissolved in 20 mM sodium phosphate buffer pH 7, containing 5% Glucose and injected intravenously. Intravenous administration with vehicle (20 mM sodium phosphate buffer, 5% D-glucose—pH 7.0), gemcitabine (dissolved in 5% D-glucose; dose 240 mg/kg) and carried out on 1, 8, 15, and 22 and compound 15 (dissolved in 20 mM sodium phosphate buffer, 5% D-glucose—pH 7.0; 18 mg/kg gemcitabine equivalents) was carried on days 0, 3, 7, 10, 14, 17, 21, and 24.

[3] = tested on: human ovarian carcinoma xenograft model OVXF 899; assay: Gemcitabine and compound 15 in human ovarian carcinoma xenograft model OVXF 899; type: in vivo, NMRI nude mice; settings: for Body weight change (BWC) versus control: compound 15 18 mg/kg gemcitabine equivalents i.v. days 1, 4, 8, 11, 15, 18, 22, 25
Procedure: Animals were kept in cages, the temperature inside the cages maintained at 25±1° C. with a relative humidity of 45-65% and an air change rate in the cage of 60-fold per hour. […] Feed and water were provided ad libitum. […] Animals were routinely monitored twice daily on working days and daily on Saturdays and Sundays. Starting on day 0, animals were weighed twice a week. Relative body weights (RBW) of individual animals are calculated by dividing the individual absolute body weight on day X (BWx) by the individual body weight on the day of randomization. The tumor volume is determined by a two-dimensional measurement with calipers on the day of randomization (Day 0) and then twice weekly. […] Schedules are applied to the extent that animal welfare policies allow. […] Frozen in liquid nitrogen, lyophilized (>48 h) and stoppered.

[4] = tested on: human pancreatic carcinoma xenograft model Panc11159; assay: Gemcitabine and compound 15 in human pancreatic carcinoma xenograft model Panc11159; type: in vivo, NMRI nude mice; settings: for tumor volumes (change): at day 85, gemcitabine 240 mg/kg, compound 15 18 mg/kg gemcitabine equivalents; for Body weight change (BWC) versus control: gemcitabine 240 mg/kg i.v. d 36, 43, 50, 57, compound 15 18 mg/kg gemcitabine equivalents i.v. d 36, 40, 43, 47, 50, 54, 57, 60
Procedure: Female NMRI nude mice (nu/nu) received unilateral Panc11159 tumor pieces subcutaneously implanted until tumors were palpable and had reached a volume of ˜200 mm^3. Animals were kept in cages (Macrolon Type-II wire-mesh), the temperature inside the cages maintained at 22±1° C. with a relative humidity of 50±10%. Light period: artificial; 12-hours dark/12 hours light rhythm (light 06.00 to 18.00 hours). The health of the mice was examined at the start of the experiment and twice per day during the experiment; identification: Ear mark and cage labels. The animals were fed with Ssniff NM, Soest, Germany and had access to autoclaved and acidified (pH 4.0) drinking. Feed and water were provided ad libitum.
Body weight change was performed two or three times per week. Tumor diameters (median and medium) were measured two or three times a week with a caliper. Tumor volumes were calculated according to V=(length×(width)2)/2. For calculation of the relative tumor volume (RTV) the tumor volumes at each measurement day were related to the day of first treatment. Stock solutions of compound 15 were prepared as follows for the two treatment groups: • 10 mice, 30-40 g average weight: 2×18 mg/kg gemcitabine equivalents (bi-weekly dosing for 4 weeks)≡58.4 mg/kg≡2.35 mg/mouse. Sample preparation: 115.5 mg weighed in a 10 mL vial dissolved in 7.35 mL 20 mM sodium phosphate buffer pH 7; 4 aliquots with 1.86 mL each in 10 mL vials. Frozen in liquid nitrogen, lyophilized (>48 h) and stoppered.
On the day of treatment the lyophilized samples were dissolved in 20 mM sodium phosphate buffer pH 7, containing 5% Glucose and injected intravenously. Intravenous administration with vehicle (20 mM sodium phosphate buffer, 5% D-glucose—pH 7.0) gemcitabine (dissolved in 5% D-glucose; dose 240 mg/kg) and carried out on d 36, 43, 50, 57 compound 15 (dissolved in 20 mM sodium phosphate buffer, 5% D-glucose—pH 7.0; 18 mg/kg gemcitabine equivalents) was carried on days d 36, 40, 43, 47, 50, 54, 57, and 60.

cytidine deaminase = target: T1, cytidine deaminase (Homo sapiens, UniProt P32320); settings: recommended dose of ˜1000 mg/m^2; cited from earlier work
T1 construct: host or cells: endogenous enzyme in the dosed subject (in vivo metabolism)

[5] = approximately one seventh of the dose of gemcitabine, p<0.05
[6] = gemcitabine 240 mg/kg i.v. days 1, 8, 15, 22

T1 sequence (P32320 whole entry): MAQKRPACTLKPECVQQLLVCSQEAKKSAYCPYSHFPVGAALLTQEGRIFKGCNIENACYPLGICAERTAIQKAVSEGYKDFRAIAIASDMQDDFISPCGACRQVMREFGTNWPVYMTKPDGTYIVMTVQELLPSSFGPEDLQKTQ

SMILES | antitumor efficacy versus gemcitabine (tumor growth development) ([1]; 24 mg/kg gemcitabine equivalents, one tenth of the dose of gemcitabine, p<0.05) | Body weight change (BWC) versus control ([1]; day 27, 24 mg/kg gemcitabine equivalents i.v. days 1, 8, 15, 22) | antitumor efficacy versus gemcitabine (tumor growth development) [2, 5] | Body weight change (BWC) versus control [2, 6] | tumor response ([2]; ˜60 days after the end of therapy, 18 mg/kg gemcitabine equivalents bi-weekly for 4 weeks) | tumor response ([3]; 50 days after the end of therapy, 18 mg/kg gemcitabine equivalents bi-weekly for 4 weeks) | antitumor efficacy versus gemcitabine (tumor growth development) [3, 5] | Body weight change (BWC) versus control [3, 6] | antitumor efficacy versus gemcitabine (tumor growth development) [4, 5] | tumor volumes (change) [4] | Body weight change (BWC) versus control [4] | Body weight change (BWC) versus control ([1]; day 23, gemcitabine 240 mg/kg i.v. days 1, 8, 15, 22) | mice sacrificed due to tumor volume exceeding 2000 mm^3 ([1]; on day 23, 8 mice per group, gemcitabine 240 mg/kg) | mice sacrificed due to tumor volume exceeding 2000 mm^3 ([2]; between day 78 to 85, 8 mice per group) | start of tumor regrowth [2, 6] | average tumor volume ([2]; ˜50 days after therapy, gemcitabine 240 mg/kg) | average tumor volume ([3]; 50 days after therapy, gemcitabine 240 mg/kg) | start of tumor regrowth [3, 6] | mice sacrificed due to tumor volume exceeding 2000 mm^3 ([3]; on day 74, 8 mice per group) | fraction deactivated by cytidine deaminase to the inactive uridine metabolite and excreted in the urine (cytidine deaminase)
C/C(=N\NC(=O)c1ccc(NC(=O)CCCCCN2C(=O)C=CC2=O)cc1[N+](=O)[O-])c1ccc(C(=O)Nc2ccn([C@@H]3O[C@H](COP(=O)(O)O)C(O)C3(F)F)c(=O)n2)cc1 (stereo partly drawn) [Compound 15] | superior antitumor efficacy | ~0.5% | superior antitumor efficacy | approximately +2% | complete tumor remissions | complete tumor remissions | superior antitumor efficacy | approximately +10% | superior antitumor efficacy | slight regression or stable disease | approximately +3% |  |  |  |  |  |  |  |  | 
Nc1ccn([C@@H]2O[C@H](CO)[C@@H](O)C2(F)F)c(=O)n1 [gemcitabine] |  |  |  | approximately +10% |  |  |  | approximately +5% |  | doubled | approximately +3% | approximately −6% | 2 mice | 2 mice | ~20 days after therapy | ~700 mm^3 | ~2000 mm^3 | ~10 days after therapy | 3 mice | approximately 90%
